The values that follow come from the supplement of paper PMC10307832.

Experiment in all cases: relative viability (nuclei count vs DMSO), 5 days (fraction); higher = more cells survive
Compound in the experiment “Mirin + Bortezomib”: N=C1NC(=O)/C(=C/c2ccc(O)cc2)S1 [Mirin] + CC(C)C[C@H](NC(=O)[C@H](Cc1ccccc1)NC(=O)c1cnccn1)B(O)O [Bortezomib] (partner 0.002 µM)
Put shortly:
(§1)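 After 5 days of treatment, lung cancer cells in 1536-well plates were fixed and stained in a single step (final 0.05% Triton X-100, 1% formaldehyde, 1 ug/ml Hoechst) and their nuclei counted on 4× images. Treatment had been applied by pin tool the day after seeding as one drug alone or as a fixed anchor-drug dose with five library-drug doses (not always all listed) in √10 steps. Relative viability is the nuclei count of treated wells divided by that of vehicle wells, and values are medians of duplicate plates.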

Compound in the experiment “Mirin + Decitabine”: N=C1NC(=O)/C(=C/c2ccc(O)cc2)S1 [Mirin] + Nc1ncn([C@H]2C[C@H](O)[C@@H](CO)O2)c(=O)n1 [Decitabine] (partner 2 µM)
Put shortly: as §1

Compound in experiment [1]: CCn1c(-c2nonc2N)nc2cnc(Oc3cccc(NC(=O)c4ccc(OCCN5CCOCC5)cc4)c3)cc21 + C[C@@H](Oc1cc(-c2cnn(C3CCNCC3)c2)cnc1N)c1c(Cl)ccc(F)c1Cl [Crizotinib] (partner 1 µM)
Put shortly: as §1

Compound in experiment [2]: CCn1c(-c2nonc2N)nc2cnc(Oc3cccc(NC(=O)c4ccc(OCCN5CCOCC5)cc4)c3)cc21 + CCNC(=O)c1noc(-c2cc(C(C)C)c(O)cc2O)c1-c1ccc(CN2CCOCC2)cc1 [Luminespib] (partner 0.01 µM)
Put shortly:
as §1

Consider UMC-11, for which the relative viability worked out at 0.876 with Mirin + Bortezomib (first compound 0.25 µM); 0.457 with Mirin + Bortezomib (first compound 0.7906 µM); 0.629 with Mirin + Bortezomib (first compound 2.5 µM); 0.636 in the experiment with Mirin + Bortezomib (first compound 7.906 µM); 0.547 in the experiment with Mirin + Bortezomib (first compound 25 µM); 0.533 in the experiment with Mirin + Decitabine (first compound 0.25 µM). Moreover, the relative viability with Mirin + Decitabine (first compound 2.5 µM) is 0.572; in the experiment with Mirin + Decitabine (first compound 7.906 µM), 0.54; with Mirin + Decitabine (first compound 25 µM) it was 0.418; in experiment [1] (first compound 0.04 µM) it was 0.924; in experiment [1] (first compound 0.1265 µM) it was 0.743; in experiment [1] (first compound 0.4 µM), 0.577. In addition, the relative viability in experiment [1] (first compound 1.265 µM) came out at 0.135; in experiment [1] (first compound 4 µM) it was 0.121; in experiment [2] (first compound 0.04 µM) it was 1.03; in experiment [2] (first compound 0.1265 µM), 0.915; in experiment [2] (first compound 0.4 µM), 0.83; in experiment [2] (first compound 1.265 µM) it was 0.291. Moreover, in experiment [2] (first compound 4 µM), the relative viability turned out to be 0.222.
